# Laboratory results as given in patent US20260294915A1, “COMBINATION THERAPY COMPRISING A MAT2A INHIBITOR AND A TOPOISOMERASE INHIBITOR, A SPLICING INHIBITOR SULFONAMIDE, OR A KIF18 INHIBITOR” (IDEAYA BIOSCIENCES, INC., priority 2023, published 2026).
# Like-named read-outs stand apart in the source and are kept apart here.
# Assays:
# Test in all cases: 10-day proliferation (CTG), equimolar Compound A + SPLAM (Example 4)
# Format in all cases: cell-based
# [1] = tested on: TCCSUP; settings: single agent or 1:1 combo; for IC50: Homo sapiens, TCC-SUP, read-out: gIC50
# Description: (§1) A 10-day proliferation assay was performed in a panel of 5 MTAP-deficient and 2 wild type non-small cell lung and bladder cancer cell lines. Optimal cell seeding for all cell lines was determined by assessing the growth over a range of seeding densities in a 384-well format to identify conditions that permitted proliferation for 10 days. Cells were then plated at the optimal seeding density and treated with 20-point, two-fold dilution series of Compound A, the splicing inhibitor sulfonamide (SPLAM), or an equimolar combination of Compound A and the SPLAM. Combinations tested included Compound A in combination with four structurally different SPLAMs. Concentrations tested for Compound A and each SPLAM alone or in combination ranged from 0.04 nM to 20,000 nM. A plate of cells was harvested at the time of compound addition to quantify the number of cells at the start of the combination (T0). For cell quantification, the harvested cells were lysed with Promega CellTiter-Glo (CTG) reagent according to the manufacturer's protocol and the chemiluminescent signal was detected on a Synergy Neo plate reader. CTG estimates cell number through detection of cellular ATP levels. Cells were incubated with the drug combinations at 37° C. with 5% CO2 for 10 days. Cells were then lysed with CTG and the chemiluminescent signal was measured.
# (§2) CTG values obtained after the 10-day treatment were background subtracted and expressed as a percent of the T0 value. Data were plotted against compound concentration and fit with a four-parameter equation to generate dose response curves for each single agent and the equimolar combination. Growth ICx (gICx) values ranging from gIC30 to gIC100 were interpolated from the fitted curves. Synergistic growth inhibition was assessed by determination of Combination Index (CI) values at these various points across the titration using the mutually non-exclusive equation [Chou, 1983; Chou, 1981] shown below where A equals the gICx value of Compound A, B equals the gICx value of the SPLAM, and A+B or B+A equals the gICx value of the equimolar combination. A Combination Index value less than 1.0 was considered synergistic.
# [2] = tested on: RT112/84; settings: single agent or 1:1 combo; for IC50: Homo sapiens, read-out: gIC50
# Description: as §1, §2
# [3] = tested on: SW900; settings: single agent or 1:1 combo; for IC50: Homo sapiens, read-out: gIC50
# Description: as §1, §2
# [4] = tested on: UMUC11; settings: single agent or 1:1 combo; for IC50: read-out: gIC50
# Description: as §1, §2
# [5] = tested on: UMUC5; settings: single agent or 1:1 combo; for IC50: read-out: gIC50
# Description: as §1, §2
# [6] = tested on: NCI-H520; settings: single agent or 1:1 combo; for IC50: Homo sapiens, read-out: gIC50
# Description: as §1, §2
# [7] = tested on: NCI-H838; settings: single agent or 1:1 combo; for IC50: Homo sapiens, read-out: gIC50
# Description: as §1, §2
smiles,measurement,setting,value
Nc1nc(=O)n(-c2ccccc2Cl)c2nc(C(F)(F)F)ccc12 [Compound A],gIC30,[1]; 10 days,14.461 µM
same,gIC40,[1]; 10 days,19.467 µM
same,gIC60,[1]; 10 days,20 µM
same,gIC70,[1]; 10 days,20 µM
same,gIC100,[1]; 10 days,20 µM
same,IC50,"[1]; 240 h, 10 days",20 µM
same,IC50,[1],20 µM
same,gIC30,[1],14.461 µM
same,gIC40,[1],19.467 µM
same,gIC60,[1],20 µM
same,gIC70,[1],20 µM
same,gIC100,[1],20 µM
same,gIC30,[2]; 10 days,345 nM
same,gIC40,[2]; 10 days,1111 nM
same,gIC60,[2]; 10 days,12.951 µM
same,gIC70,[2]; 10 days,20 µM
same,gIC100,[2]; 10 days,20 µM
same,IC50,"[2]; RT112/84, 240 h, 10 days",3.41 µM
same,IC50,[2]; RT112/84,3.41 µM
same,gIC30,[2],345 nM
same,gIC40,[2],1111 nM
same,gIC60,[2],12.951 µM
same,gIC70,[2],20 µM
same,gIC100,[2],20 µM
same,gIC30,[3]; 10 days,19.994 µM
same,gIC40,[3]; 10 days,20 µM
same,gIC60,[3]; 10 days,20 µM
same,gIC70,[3]; 10 days,20 µM
same,gIC100,[3]; 10 days,20 µM
same,IC50,"[3]; SW900, 240 h, 10 days",20 µM
same,IC50,[3]; SW900,20 µM
same,gIC30,[3],19.994 µM
same,gIC40,[3],20 µM
same,gIC60,[3],20 µM
same,gIC70,[3],20 µM
same,gIC100,[3],20 µM
same,IC50,"[4]; 240 h, 10 days",20 µM
same,gIC30,[4]; 10 days,20 µM
same,gIC40,[4]; 10 days,20 µM
same,gIC60,[4]; 10 days,20 µM
same,gIC70,[4]; 10 days,20 µM
same,gIC100,[4]; 10 days,20 µM
same,gIC30,[4],20 µM
same,gIC40,[4],20 µM
same,gIC60,[4],20 µM
same,gIC70,[4],20 µM
same,gIC100,[4],20 µM
same,IC50,[4],20 µM
same,IC50,"[5]; 240 h, 10 days",4.28 µM
same,gIC30,[5]; 10 days,420 nM
same,gIC40,[5]; 10 days,1291 nM
same,gIC60,[5]; 10 days,13.142 µM
same,gIC70,[5]; 10 days,20 µM
same,gIC100,[5]; 10 days,20 µM
same,gIC30,[5],420 nM
same,gIC40,[5],1291 nM
same,gIC60,[5],13.142 µM
same,gIC70,[5],20 µM
same,gIC100,[5],20 µM
same,IC50,[5],4.28 µM
same,gIC30,[6]; 10 days,20 µM
same,gIC40,[6]; 10 days,20 µM
same,gIC60,[6]; 10 days,20 µM
same,gIC70,[6]; 10 days,20 µM
same,gIC100,[6]; 10 days,20 µM
same,IC50,"[6]; NCI-H520, 240 h, 10 days",20 µM
same,IC50,[6]; NCI-H520,20 µM
same,gIC30,[6],20 µM
same,gIC40,[6],20 µM
same,gIC60,[6],20 µM
same,gIC70,[6],20 µM
same,gIC100,[6],20 µM
same,gIC30,[7]; 10 days,102 nM
same,gIC40,[7]; 10 days,189 nM
same,gIC60,[7]; 10 days,11.309 µM
same,gIC70,[7]; 10 days,20 µM
same,gIC100,[7]; 10 days,20 µM
same,IC50,"[7]; NCI-H838, 240 h, 10 days",0.594 µM
same,IC50,[7]; NCI-H838,0.594 µM
same,gIC30,[7],102 nM
same,gIC40,[7],189 nM
same,gIC60,[7],11.309 µM
same,gIC70,[7],20 µM
same,gIC100,[7],20 µM
